Results as given in patent US20260240844A1, “INHIBITORS OF CHD1L AND USES THEREOF” (The Regents of the University of Colorado, a body corporate, priority 2023, published 2026).
Where two headings read alike, the source gives them in different places. Blank lines part the entries; values can stand above or below the molecule they belong to.

Columns and labels:
[1] = system: PAR in SUM149PT cells; experiment: PAR immunofluorescence (nuclear / cytoplasmic PAR); assay type: cell-based
Description: Inhibition of CHD1L promotes PAR translocation to the cytoplasm. The main role of PARP1 during the DDR is to detect and signal the recruitment of repair machinery to the sites of DNA damage. For that, PARP1/2 catalyze PARylation, which is a pivotal […] protein modification, consisting of the addition of ADP-ribose units to the carboxyl group of acidic residues such as glutamate or aspartate on target proteins by using NAD^+ as substrate. CHD1L is one of the proteins that requires binding to these PAR chains for its activation and subsequent chromatin remodeling. Using immunofluorescence of PAR, the effect of PARPi and CHD1Li on PARylation in SUM149PT cells was investigated. […] In addition, the effect of doxorubicin on nuclear PARylation was reverted by CHD1L inhibition, causing an increase of PAR in the cytoplasm (FIG. 25A-C).

[2] = target: T1, CHD1L (Homo sapiens, UniProt Q86WJ1); experiment: CHD1L trapping (in situ subcellular fractionation, immunofluorescence); assay type: cell-based; settings: single agent; SUM149PT + 0.01% MMS 4 h; BC and CRC cells
T1 sequence (Q86WJ1 1-897): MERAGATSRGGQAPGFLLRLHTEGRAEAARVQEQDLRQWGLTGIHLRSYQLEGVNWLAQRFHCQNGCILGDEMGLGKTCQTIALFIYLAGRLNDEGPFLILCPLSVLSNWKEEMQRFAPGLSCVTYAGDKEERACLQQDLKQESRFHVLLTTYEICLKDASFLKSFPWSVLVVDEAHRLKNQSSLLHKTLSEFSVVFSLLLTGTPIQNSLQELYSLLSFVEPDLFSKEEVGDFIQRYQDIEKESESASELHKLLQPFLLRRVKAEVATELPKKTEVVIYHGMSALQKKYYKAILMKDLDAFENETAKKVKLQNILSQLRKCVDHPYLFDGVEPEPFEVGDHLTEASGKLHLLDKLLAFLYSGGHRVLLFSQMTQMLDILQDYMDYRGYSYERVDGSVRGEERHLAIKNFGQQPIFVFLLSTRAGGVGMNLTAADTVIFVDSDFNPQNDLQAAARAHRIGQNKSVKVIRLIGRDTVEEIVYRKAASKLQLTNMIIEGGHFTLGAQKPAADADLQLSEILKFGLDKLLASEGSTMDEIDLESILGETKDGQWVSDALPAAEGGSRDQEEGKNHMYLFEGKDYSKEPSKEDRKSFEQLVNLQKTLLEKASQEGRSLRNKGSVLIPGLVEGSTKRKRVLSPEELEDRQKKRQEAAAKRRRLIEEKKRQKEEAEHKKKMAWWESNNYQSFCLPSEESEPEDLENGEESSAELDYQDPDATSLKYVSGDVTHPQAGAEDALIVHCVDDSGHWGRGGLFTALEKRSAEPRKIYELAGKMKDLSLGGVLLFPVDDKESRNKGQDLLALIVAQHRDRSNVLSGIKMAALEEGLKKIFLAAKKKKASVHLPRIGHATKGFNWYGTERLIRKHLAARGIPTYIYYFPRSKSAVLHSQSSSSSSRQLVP
Description: Other studies on the role of CHD1L used cell lines with knockdown or knockouts of the gene encoding for CHD1L and have never been able to study the result of its enzymatic inhibition.

[3] = system: SUM149PT tumor organoids; experiment: Tumor organoid cytotoxicity (CellTiter Glo 3D), SUM149PT; assay type: cell-based; settings: for calculated mean synergy scores: MDA-MB-231 and SUM149PT; for Mean Synergy Score / IC50: SUM149PT; for IC50: Homo sapiens, read-out: IC50 docetaxel
Procedure: Tumor organoid culture—Cell lines were cultured as tumor organoids by seeding 2,000 to 5,000 cells/well into uncoated 96 well U-bottom Ultra Low Attachment Microplates (Corning) using their corresponding medium.
Luminescence was recorded using the EnVision plate reader (PerkinElmer) and values normalized to the controls using GraphPad Prism.

[4] = system: AIF in SUM149PT cells; experiment: AIF immunofluorescence in SUM149PT (SUM149) cells; assay type: cell-based
Description: CHD1Li-mediated PAR translocation to the cytoplasm activates PARthanatos as a cell death mechanism. Parthanatos is a form a programmed cell death different from apoptosis and known to be mediated by PARP1 overactivation. The unique events occurring during parthanatos are: PARP1 rapid activation, accumulation of PAR and nuclear translocation of apoptosis inducing factor (AIF). Without being bound by any particular theory, accumulation of PAR in the cytoplasm caused by CHD1Li can also mediate parthanatos. To better understand the link between PAR translocation to the cytoplasm and cell death, immunofluorescence to measure the activation of caspase-3 and the subcellular localization of AIF after treatment with SOC drugs and Compound 6 in SUM49PT cells was used. […] Without being bound by any particular theory, this might be caused by the mitochondrial outer membrane permeabilization, which triggers release of mitochondrial proteins like AIF or cytochrome c, activating caspase-3 by its cleavage and leading to apoptosis. […] Moreover, when combining CHD1L inhibition with SOC drugs, the cell death mechanism shifts from apoptosis to parthanatos, evidenced by a significant increase in AIF nuclear translocation and decrease in activation of caspase-3 (FIG. 25D-E).
(§1) The ability of Compounds 12, 15 and 16 to localize AIF was tested in SUM149 (breast cancer) and MDA-MB-231 (TNBC) cell lines. A comparison of the relative distribution of AIF in nuclei (a) versus cytoplasm (b) in SUM149 cells and nuclei (c) versus cytoplasm (d) in MDA-MB-231 cells in the presence of 4 μM Compounds 12, 15 and 16 are shown in FIG. 28. […] Similarly, AIF concentration in the cytoplasm of MDA-MB-231 cells decreased by about 0.5 after administration with Compound 15. After treatment with Compound 16, the relative concentration of AIF in the nuclei of SUM149 cells increased by about 0.5-fold, and the concentration of AIF in the cytoplasm decreased by about 0.4-fold. In MDA-MB-231 cells, the relative concentration of AIF in the cytoplasm decreased by about 0.5-fold, while the concentration of AIF increased in the nuclei by about 0.1-fold.

[5] = system: MiaPaca2 cells; experiment: MiaPaca2 cell viability, combination with chemotherapy; assay type: cell-based; settings: MiaPaca2 cells
Description: The cell viability assays and Bliss synergy analyses are as described above in Examples 1-9 and 11-12.

[6] = system: SW620 Parental cells; experiment: SW620 Parental cell viability, combination with chemotherapy; assay type: cell-based; settings: SW620 cells
[7] = system: HCT116 Parental cells; experiment: HCT116 Parental cell viability, combination with chemotherapy; assay type: cell-based; settings: HCT116 cells
[8] = system: MDA-MB-231 tumor organoids; experiment: Tumor organoid cytotoxicity, MDA-MB-231; assay type: cell-based; settings: MDA-MB-231
Procedure: Tumor organoid culture—Cell lines were cultured as tumor organoids by seeding 2,000 to 5,000 cells/well into uncoated 96 well U-bottom Ultra Low Attachment Microplates (Corning) using their corresponding medium. Cell aggregation was then promoted by centrifugation of the plates for 15 min at 1,000 rpm followed by the addition of Matrigel (Corning) to a 2-5% final concentration. Tumor organoids were maintained under standard cell culture conditions for 72 h prior to drug treatment.
Organoids were then transferred to a white solid bottom 96 well plate and incubated with an equal volume of CellTiter Glo 3D reagent (Promega) for 45 min on a shaker at 400 rpm. Luminescence was recorded using the EnVision plate reader (PerkinElmer) and values normalized to the controls using GraphPad Prism.

[9] = system: Colo678 cells; experiment: Colo678 cell viability, combination with chemotherapy; assay type: cell-based; settings: Colo678 cells
[10] = system: Colo679 cells; experiment: DDR biomarkers (pATM, RAD51, 53BP1, γ-H2AX) in Colo679 cells; assay type: cell-based; settings: 4 μM
Description: (§2) Etoposide was used as a control to show upregulation of DDR pathway biomarkers.

[11] = system: SUM149 and MDA-MB-231 cells; experiment: DDR biomarkers in breast cancer cells; assay type: cell-based; settings: 4 μM
Description: as §2

[12] = system: AIF in MDA-MB-231 cells; experiment: AIF localization in MDA-MB-231 cells; assay type: cell-based; settings: 4 μM
Procedure: as §1

[13] = system: SW948 tumor organoids; experiment: cells; settings: SW948 tumor organoids; combined with Compound 6
Procedure: ATM is an important protein involved in the initial stages of the DNA damage response. […] ATM mutations are important markers being developed to identify metastatic CRC (mCRC) patients that may be sensitive to DNA damaging chemotherapy.
Synergy was assessed using the Bliss model.

[14] = SUM149PT tumor organoids, combined with Compound 6
[15] = SUM149PT cells, single agent, 18 h
[16] = Compound 13 combined with Olaparib
[17] = Compound 13 combined with doxorubicin

CHD1L trapping onto chromatin/nucleosomes [2]: did not show CHD1L trapping
Molecule: CCc1cc2ncc(CN3CCN(c4ccc(C(=O)NC)nc4)CC3)cc2[nH]c1=O [AZD5305]
nuclear PAR (PARylation) ([1]; SUM149PT cells, single agent, 4 h): inhibition of nuclear PARylation
improvement of IC50 potency [3, 14]: 2.7 fold
cytoplasmic AIF [4, 15]: increase in the AIF intensity in the cytoplasm
nuclear AIF [4, 15]: no translocation of this protein to the nucleus

Molecule: Cc1cc(Nc2ccc(NC(=O)Cc3c[nH]c4cc(Cl)ccc34)cc2)nc(N2CCCC2)n1 [Compound 7, 2-(6-chloro-1H-indol-3-yl)-N-(4-((6-methyl-2-(pyrrolidin-1-yl)pyrimidin-4-yl)amino)phenyl)acetamide]
calculated mean synergy score ([5]; combined with 5-FU): about 25
calculated mean synergy score ([5]; combined with SN-38): about 24.5

Molecule: Cc1cc(Nc2ccc(NC(=O)Cc3cc(Cl)nc4ccccc34)cc2)nc(N2CCCC2)n1 [Compound 8, 2-(2-chloroquinolin-4-yl)-N-(4-((6-methyl-2-(pyrrolidin-1-yl)pyrimidin-4-yl)amino)phenyl)acetamide]
calculated mean synergy score ([5]; combined with 5-FU): about 29.5
calculated mean synergy score ([5]; combined with SN-38): about 26

Molecule: Cc1cc(Nc2ccc(NC(=O)/C=C/c3cc(Br)cs3)cc2)nc(N2CCCC2)n1 [Compound 11, (E)-3-(4-bromothiophen-2-yl)-N-(4-((6-methyl-2-(pyrrolidin-1-yl)pyrimidin-4-yl)amino)phenyl)acrylamide]
calculated mean synergy score ([6]; 72 h, combined with SN-38): about 24
calculated mean synergy score ([6]; combined with 5-FU): about 43
calculated mean synergy score ([7]; 72 h, combined with SN-38): about 14
calculated mean synergy score ([7]; combined with 5-FU): about 8

Molecule: Cc1cc(Nc2ccc(NC(=O)c3cc(Br)cs3)cc2)nc(N2CCCC2)n1 [Compound 13, 4-bromo-N-(4-((6-methyl-2-(pyrrolidin-1-yl)pyrimidin-4-yl)amino)phenyl)thiophene-2-carboxamide]
Mean Synergy Score ([8]; Compound 13 combined with 5-FU): 23.62
Mean Synergy Score [8, 16]: 40.44
Mean Synergy Score [8, 17]: 23.62
calculated mean synergy score ([5]; combined with 5-FU): about 57
calculated mean synergy score ([5]; combined with SN-38): about 18
calculated mean synergy scores ([3]; all combinations with 5-FU or doxorubicin): at least 20
calculated mean synergy scores ([3]; all combinations with Olaparib): at least 40
Mean Synergy Score ([3]; Compound 13 combined with 5-FU): 23.62
Mean Synergy Score [3, 16]: 69.46
Mean Synergy Score [3, 17]: 42.74
calculated mean synergy score ([9]; 72 h, combined with SN-38): about 41
calculated mean synergy score ([9]; combined with 5-FU): about 12

Molecule: Cc1cc(Nc2ccc(NC(=O)c3cnc(Br)s3)cc2)nc(N2CCCC2)n1 [Compound 14, 2-bromo-N-(4-((6-methyl-2-(pyrrolidin-1-yl)pyrimidin-4-yl)amino)phenyl)thiazole-5-carboxamide]
amount of 53BP1 [10]: decrease the amount of 53BP1
amount of pATM [10]: increased the amount of pATM
γ-H2AX concentrations [10]: decreased
amounts of γ-H2AX and 53BP1 [11]: overall decreases in the amounts of γ-H2AX and 53BP1
calculated mean synergy score ([9]; 72 h, combined with SN-38): about 57
calculated mean synergy score ([9]; combined with 5-FU): about 26

Molecule: Cc1cc(Nc2ccc(NC(=O)Cc3ccc(Br)s3)cc2)nc(N2CCCC2)n1 [Compound 15, 2-(5-bromothiophen-2-yl)-N-(4-((6-methyl-2-(pyrrolidin-1-yl)pyrimidin-4-yl)amino)phenyl)acetamide]
decrease in AIF in the cytoplasm [12]: about 0.5 fold
decrease in AIF in the cytoplasm ([4]; SUM149 cells, 4 μM): about 0.5 fold
increase in AIF in the nucleus ([4]; SUM149 cells, 4 μM): about 0.5 fold

Molecule: CC(=O)O[C@@]12CO[C@@H]1C[C@H](O)[C@@]1(C)C(=O)[C@H](O)C3=C(C)[C@@H](OC(=O)[C@H](O)[C@@H](NC(=O)OC(C)(C)C)c4ccccc4)C[C@@](O)([C@@H](OC(=O)c4ccccc4)[C@H]21)C3(C)C [docetaxel]
IC50 [3, 14]: 0.5 µM
IC50 ([3]; SUM149PT tumor organoids, docetaxel alone): 55 µM
increase in potency of the chemotherapy ([3]; SUM149PT BRCA1 mutant tumor organoids, + 1.9 μM Compound 6): 110 fold

Molecule: O=C(O)C(=O)O.[NH-][C@@H]1CCCC[C@H]1[NH-].[Pt+2] [oxaliplatin]
increase in potency of the chemotherapy [13]: 20 fold

Molecule: PDD00017273
nuclear PAR under CHD1L inhibition ([1]; cells pre-treated 2 hours with 1 μM PARG inhibitor before CHD1Li): kept the levels of nuclear PAR similar to control cells
